By IC50 is commonly meant the point on the concentration scale where inhibition reaches its midpoint. Low values mean higher potency, high ones lower potency.

BTK, sequence (Q06187 whole entry, looked up, species assumed): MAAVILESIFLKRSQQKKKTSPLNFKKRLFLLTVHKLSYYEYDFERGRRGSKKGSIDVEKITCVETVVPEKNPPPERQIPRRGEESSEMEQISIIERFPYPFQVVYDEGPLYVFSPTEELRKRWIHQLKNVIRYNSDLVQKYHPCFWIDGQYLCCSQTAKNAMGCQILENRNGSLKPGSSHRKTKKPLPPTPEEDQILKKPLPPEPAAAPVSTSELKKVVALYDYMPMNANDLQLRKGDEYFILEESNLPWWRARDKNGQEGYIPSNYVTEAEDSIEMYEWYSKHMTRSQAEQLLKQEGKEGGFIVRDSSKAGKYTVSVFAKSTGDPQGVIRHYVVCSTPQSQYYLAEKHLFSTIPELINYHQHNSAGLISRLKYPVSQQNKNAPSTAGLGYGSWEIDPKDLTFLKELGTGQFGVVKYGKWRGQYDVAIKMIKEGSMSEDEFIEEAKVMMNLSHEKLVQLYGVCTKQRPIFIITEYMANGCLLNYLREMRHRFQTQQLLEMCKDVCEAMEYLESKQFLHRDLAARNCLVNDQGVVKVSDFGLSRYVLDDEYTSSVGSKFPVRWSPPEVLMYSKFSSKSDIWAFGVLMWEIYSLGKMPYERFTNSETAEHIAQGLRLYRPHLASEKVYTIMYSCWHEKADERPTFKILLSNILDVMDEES

The assay addresses BTK (Homo sapiens (Human), UniProt Q06187). The experiment in a line: biochemical.
Compound `C=CC(=O)N1CCC[C@H]1c1nc(-c2ccc(Oc3cccc(C)c3C)cc2)c2cnccn12` [Example 12, (S)-1-(2-(1-(4-(2,3-dimethylphenoxy)phenyl)imidazo[1,5-a]pyrazin-3-yl)pyrrolidin-1-yl)prop-2-en-1-one] returned an IC50 of 10 to 100 nM.

Consider `CC#CC(=O)N1CCC[C@H]1c1nc(-c2ccc(COc3cccc(F)c3)cc2)c2cnccn12` [Example 147, (S)-1-(2-(1-(4-((3-fluorophenoxy)methyl)phenyl)imidazo[1,5-a]pyrazin-3-yl)pyrrolidin-1-yl)but-2-yn-1-one], for which the IC50 lay within 1000 to 10000 nM.

`C=CC(=O)N1CCC[C@H]1c1nc(-c2ccc(C(=O)Nc3ccccn3)cc2)c2cncc(C)n12` [Example 172, (S)-4-(3-(1-aeryloylpyrrolidin-2-yl)-5-methylimidazo [1,5-a]pyrazin-l-yl)-N-(pyridin-2-yl)benzamide] displayed an IC50 of 10 to 100 nM.

`CC#CC(=O)N1CCC[C@H]1c1nc(-c2ccc(Oc3cccc(OC)c3F)cc2)c2cnccn12` [Example 34, (S)-1-(2-(1-(4-(2-fluoro-3-methoxyphenoxy)phenyl)imidazo[1,5-a]pyrazin-3-yl)pyrrolidin-1-yl)but-2-yn-1-one] gave an IC50 of 10 to 100 nM.

Regarding `CC#CC(=O)N1CC[C@@H](c2nc(-c3ccc(Oc4cccc(OC)c4F)cc3)c3c(CO)nccn23)C1` [Example 119, (R)-1-(3-(1-(4-(2-fluoro-3-methoxyphenoxy)phenyl)-8-(hydroxymethyl)imidazo[1,5-a]pyrazin-3-yl)pyrrolidin-1-yl)but-2-yn-1-one], the IC50 was 10 to 100 nM.

The compound `CC#CC(=O)N1CCC[C@H]1c1nc(-c2ccc(OCc3c(F)cccc3F)cc2)c2cnccn12` [Example 137, (S)-1-(2-(1-(4-((2,6-difluorobenzyl)oxy)phenyl)imidazo[1,5-a]pyrazin-3-yl)pyrrolidin-1-yl)bul-2-yn-1-one] displayed an IC50 of 1000 to 10000 nM.

As to `C=CC(=O)N1CCC[C@H]1c1nc(-c2ccc(COc3cccc(F)c3)cc2)c2cnccn12` [Example 145, (S)-1-(2-(1-(4-((3-fluorophenoxy)methyl)phenyl)imidazo[1,5-a]pyrazin-3-yl)pyrrolidin-1-yl)prop-2-en-1-one], the IC50 fell in the range of 10 to 100 nM.

With `CC#CC(=O)N1CC[C@@H](c2nc(-c3ccc(Oc4cccc(OC)c4F)cc3)c3cncc(OCCN(C)C)n23)C1` [Example 90, (R)-1-(3-(5-(2-(dimethylamino)ethoxy)-1-(4-(2-fluoro-3-methoxyphenoxy)phenyl)imidazo[1,5-a]pyrazin-3-yl)pyrrolidin-1-yl)but-2-yn-1-one], the IC50 fell in the range of 10 to 100 nM.

For the compound `CC#CC(=O)N1CCC[C@H]1c1nc(-c2ccc(Oc3cccc(OC)c3F)cc2)c2c(C)nccn12` [Example 57, (S)-1-(2-(1-(4-(2-fluoro-3-methoxyphenoxy)phenyl)-8-methylimidazo[1,5-a]pyrazin-3-yl)pyrrolidin-1-yl)but-2-yn-1-one], the IC50 was 10 to 100 nM.

Take `CC#CC(=O)N1CC[C@@H](c2nc(-c3ccc(Oc4cccc(OC)c4F)cc3)c3cncc(OC4CCC4)n23)C1` [Example 101, (R)-1-(3-(5-cyclobutoxy-1-(4-(2-fluoro-3-methoxyphenoxy)phenyl)imidazo[1,5-a]pyrazin-3-yl)pyrrolidin-1-yl)but-2-yn-1-one]: the half-maximal inhibitory concentration (IC50) lay within 10 to 100 nM.

`CC#CC(=O)N1CCCC[C@H]1c1nc(-c2ccc(COc3ccc(F)c(F)c3)cc2)c2c(C)nccn12` [Example 151, (S)-1-(2-(1-(4-((3,4-difluorophenoxy)methyl)phenyl)-8-methylimidazo[1,5-a]pyrazin-3-yl)piperidin-1-yl)but-2-yn-1-one]: the IC50 fell in the range of 100 to 1000 nM.

In turn, `C=CC(=O)N1CCC[C@H]1c1nc(-c2ccc(COc3ccccc3F)cc2)c2cnccn12` [Example 125, (S)-(2-(1-(4-((2-fluorophenoxy)methyl)phenyl)imidazo[1,5-a]pyrazin-3-yl)pyrrolidin-1-yl)prop-2-en-1-one] had an IC50 of 10 to 100 nM.
